Source: patent publication US20250214977A1, “STAT6 INHIBITORS AND USES THEREOF” (Kymera Therapeutics, Inc., priority 2024, published 2025)

Tested on: Phosphorylation of STAT6 in human PBMC (CD19+ B cells)
Experiment: Phosphorylated STAT6 (pSTAT6) flow cytometry assay in human PBMC, IL-4 stimulated
Assay type: cell-based
Details: compound 1 hour, 1 ng/ml IL-4 for 15 minutes, read-out: STAT6 IL4 pSTAT6 assay in PBMC: Average IC50
Description: Example 2. Phosphorylated STAT6 (pSTAT6) Flow Cytometry Assay in Human PBMC
Phosphorylation of STAT6 in human PBMC was quantitatively measured using flow cytometry technology. Human PBMC were seeded in 96-well plates with a density of 0.3 to 0.5 million cells per well in 100 μl fresh media. Compounds were then added to the assay plates with a final top concentration of up to 30 μM in a 1:3 dilution series with total of 9 doses. The assay plates were incubated for 1 hour at 37° C. under 5% CO2. The cells were then stimulated with 1 ng/ml of IL-4 (R&D Systems, Cat #6507-IL) for 15 minutes, followed by fixation for 30 minutes at 4° C. Cells were spun down at 350 g for 5 minutes. The supernatant was removed and cells were washed once with FACS buffer. Cells were permeabilized with 90% MeOH/H2O for 30 minutes at 4° C., followed by one wash with FACS buffer. Non-specific binding were blocked with human Fc for 1 hour at 4 C, followed by one wash with FACS buffer. AF488 conjugated pSTAT6 antibody (BD Biosciences, Cat #612600, 1:100 dilution) and PE conjugated CD19 antibody (BD Biosciences, Cat #341103, 1:50 dilution) diluted in 100 μl FACS buffer was added to each well with overnight incubation at 4° C. Cells were then washed once with FACS buffer and resuspended in 200 μl of FACS buffer for flow cytometry to quantify pSTAT6 in CD19+ B cells. The data was analyzed by GraphPad Prism and the dose dependent pSTAT6 inhibition was fit using the four-parameter inhibitor vs. response nonlinear regression.

Structure (SMILES)	IC50 [µM]
CNS(=O)(=O)c1cccc(C(=O)N2CCC=C(c3ccc4cc(C(=O)N(C)C)[nH]c4c3)C2)c1 [Example I-70]	> 100
CN(C)C(=O)c1cc2ccc(C3=CCCN(C(=O)C4ON=C(c5ccccc5)O4)C3)cc2[nH]1 (centres unmarked) [Example I-71]	10 to 100
CC(=O)OCC(C(=O)N1CCC=C(c2ccc3cc(C(=O)N(C)C)[nH]c3c2)C1)c1ccccc1 (centres unmarked) [Example I-73]	10 to 100
Cc1cc(Cl)c(S(C)(=O)=O)cc1C(=O)N1CCC=C(c2ccc3cc(C(=O)N(C)C)[nH]c3c2)C1 [Example I-74]	10 to 100
CN(C)C(=O)c1cc2ccc(C3=CCCN(C(=O)CN(C)S(=O)(=O)c4ccccc4)C3)cc2[nH]1 [Example I-75]	10 to 100
CN(C)C(=O)c1cc2ccc(C3=CCCN(C(=O)[C@@H]4C[C@H](c5ccccc5)CN4)C3)cc2[nH]1 [Example I-76]	> 100
CC(=O)NC(C(=O)N1CCC=C(c2ccc3cc(C(=O)N(C)C)[nH]c3c2)C1)c1cccc(Cl)c1 (centres unmarked) [Example I-77]	10 to 100
CN(C)C(=O)c1cc2ccc(C3=CCCN(C(=O)C4(c5ccc(Cl)cc5)CC(O)C4)C3)cc2[nH]1 (centres unmarked) [Example I-78]	> 100
CN(C)C(=O)c1cc2ccc(C3=CCCN(C(=O)CN4C(=O)COc5ccccc54)C3)cc2[nH]1 [Example I-79]	10 to 100
CN(C)C(=O)c1cc2ccc(C3=CCCN(C(=O)CCn4ncc5cc(Cl)ncc54)C3)cc2[nH]1 [Example I-80]	> 100
CCOC(=O)N(CC(=O)N1CCC=C(c2ccc3cc(C(=O)N(C)C)[nH]c3c2)C1)Cc1ccco1 [Example I-81]	> 100
CC(=O)NC(Cc1cccc(F)c1)C(=O)N1CCC=C(c2ccc3cc(C(=O)N(C)C)[nH]c3c2)C1 (centres unmarked) [Example I-82]	10 to 100
CN(C)C(=O)c1cc2ccc(C3=CCCN(C(=O)c4ccc(-c5ccc(Cl)cc5)cc4)C3)cc2[nH]1 [Example I-83]	10 to 100
CN(C)C(=O)c1cc2ccc(C3=CCCN(C(=O)C4(c5ccc(C(F)(F)F)cc5)CC4)C3)cc2[nH]1 [Example I-84]	> 100
CN(C)C(=O)c1cc2ccc(C3=CCCN(C(=O)CCCn4c(=O)[nH]c5ccccc54)C3)cc2[nH]1 [Example I-85]	> 100
Cc1cccc(-c2ncccc2C(=O)N2CCC=C(c3ccc4cc(C(=O)N(C)C)[nH]c4c3)C2)c1 [Example I-86]	> 100
CN(C)C(=O)c1cc2ccc(C3=CCCN(C(=O)C4(c5ccccc5)CCC(=O)NC4)C3)cc2[nH]1 (centres unmarked) [Example I-87]	10 to 100
CN(C)C(=O)c1cc2ccc(C3=CCCN(C(=O)C4CC(=O)N(Cc5ccccc5)C4)C3)cc2[nH]1 (centres unmarked) [Example I-88]	10 to 100
Cc1nc(-c2ccccc2F)c(C(=O)N2CCC=C(c3ccc4cc(C(=O)N(C)C)[nH]c4c3)C2)o1 [Example I-89]	> 100
CN(C)C(=O)c1cc2ccc(C3=CCCN(C(=O)CCCn4ncc5nc(Cl)ccc54)C3)cc2[nH]1 [Example I-90]	10 to 100
CN(C)C(=O)c1cc2ccc(C3=CCCN(C(=O)CC(c4ccccc4)c4ccccc4)C3)cc2[nH]1 [Example I-91]	10 to 100

Structure (SMILES)	IC50 [µM]
CN(C)C(=O)c1cc2ccc(C3=CCCN(C(=O)c4ccccc4CSc4ccccc4)C3)cc2[nH]1 [Example I-92]	10 to 100
CN(C)C(=O)c1cc2ccc(C3=CCCN(C(=O)C4COCC(=O)N4Cc4ccccc4)C3)cc2[nH]1 (centres unmarked) [Example I-93]	10 to 100
CN(C)C(=O)c1cc2ccc(C3=CCCN(C(=O)c4cccnc4-c4cc(F)cc(F)c4)C3)cc2[nH]1 [Example I-94]	10 to 100
CN(C)C(=O)c1cc2ccc(C3=CCCN(C(=O)c4cccnc4SCc4ccccc4)C3)cc2[nH]1 [Example I-95]	> 100
CCC[C@@H](C(=O)N1CCC=C(c2ccc3cc(C(=O)N(C)C)[nH]c3c2)C1)N1Cc2ccccc2C1=O [Example I-96]	10 to 100
Cc1cccc(C)c1N1CC(C(=O)N2CCC=C(c3ccc4cc(C(=O)N(C)C)[nH]c4c3)C2)CC1=O (centres unmarked) [Example I-97]	10 to 100
CN(C)C(=O)c1cc2ccc(C3=CCCN(C(=O)C4(O)CCN(Cc5ccccc5)CC4)C3)cc2[nH]1 [Example I-98]	10 to 100
CN(C)C(=O)c1cc2ccc(C3=CCCN(C(=O)[C@@H]4CCCN4C(=O)c4ccc(F)cc4)C3)cc2[nH]1 [Example I-99]	> 100
CN(C)C(=O)c1cc2ccc(C3=CCCN(C(=O)C4CN(Cc5ccccc5)CCO4)C3)cc2[nH]1 (centres unmarked) [Example I-100]	10 to 100
CN(C)C(=O)c1cc2ccc(C3=CCCN(C(=O)CNC(=O)c4cccc(C(F)(F)F)c4)C3)cc2[nH]1 [Example I-101]	> 100
CN(C)C(=O)c1cc2ccc(C3=CCCN(C(=O)c4cc5occc5n4-c4ccccc4)C3)cc2[nH]1 [Example I-102]	10 to 100
CN(C)C(=O)c1cc2ccc(C3=CCCN(C(=O)C(CC4CC4)N4Cc5ccccc5C4=O)C3)cc2[nH]1 (centres unmarked) [Example I-104]	> 100
CN(C)C(=O)c1cc2ccc(C3=CCCN(C(=O)c4ccccc4-c4ccccc4C(=O)O)C3)cc2[nH]1 [Example I-105]	10 to 100
Cc1ccccc1OCc1ccccc1C(=O)N1CCC=C(c2ccc3cc(C(=O)N(C)C)[nH]c3c2)C1 [Example I-106]	1 to 10
CN(C)C(=O)c1cc2ccc(C3=CCCN(C(=O)Cc4cccc(OCc5ccccc5)c4)C3)cc2[nH]1 [Example I-107]	0.1 to 1
CN(C)C(=O)c1cc2ccc(C3=CCCN(C(=O)c4ccccc4C(=O)c4ccc(F)cc4)C3)cc2[nH]1 [Example I-108]	> 100
CN(C)C(=O)c1cc2ccc(C3=CCCN(C(=O)C4CCN(c5ncccc5C(=O)O)CC4)C3)cc2[nH]1 [Example I-109]	10 to 100
CN(C)C(=O)c1cc2ccc(C3=CCCN(C(=O)c4cc(=O)c(OCc5ccccc5)c[nH]4)C3)cc2[nH]1 [Example I-110]	> 100
Cc1ccc(C(=O)N2CCC=C(c3ccc4cc(C(=O)N(C)C)[nH]c4c3)C2)c(=O)n1-c1ccc(F)cc1 [Example I-111]	> 100
CN(C)C(=O)c1cc2ccc(C3=CCCN(C(=O)CCC(=O)O)C3)cc2[nH]1 [Example I-112]	> 100
CNc1ccc(-c2cc(C3=CCCN(C(=O)CCn4ccnn4)C3)cc3[nH]c(C(=O)N(C)C)cc23)cc1 [Example I-113]	< 0.1

Structure (SMILES)	IC50 [µM]
CNc1ccc(-c2cc(C3=CCCN(C(=O)CCn4ccnn4)C3)cc3[nH]c(C(=O)N(C)C)cc23)c(C)c1 [Example I-114]	0.1 to 1
CNc1ccc(-c2cc(C3=CCCN(C(=O)CCn4ccnn4)C3)cc3[nH]c(C(=O)N(C)C)cc23)c(F)c1 [Example I-115]	1 to 10
CNc1ccc(-c2cc(C3=CCCN(C(=O)CCn4ccnn4)C3)cc3[nH]c(C(=O)N(C)C)cc23)nc1 [Example I-116]	0.1 to 1
CNc1ccc(-c2cc(C3=CCCN(C(=O)CCn4ccnn4)C3)cc3[nH]c(C(=O)N(C)C)cc23)c(OC)c1 [Example I-117]	< 0.1
CNc1ccc(-c2cc(C3=CCCN(C(=O)CCn4ccnn4)C3)cc3[nH]c(C(=O)N(C)C)cc23)c(Cl)c1 [Example I-118]	< 0.1
O=C(CCn1ccnn1)N1CCC=C(c2ccc3cc(-c4ccccn4)[nH]c3c2)C1 [Example I-119]	> 100
CN(C)C(=O)c1cc2ccc(C3=CCCN(C(=O)OCn4ccnn4)C3)cc2[nH]1 [Example I-120]	> 100
CN(C)C(=O)c1cc2ccc(C3=CCCN(C(=O)[C@@H](Cn4ccnn4)c4cccc(O)c4)C3)cc2[nH]1 [Example I-122]	> 100
O=C(CCn1ccnn1)N1CCC=C(c2ccc3cc(C(=O)N4CCCCC4)[nH]c3c2)C1 [Example I-123]	10 to 100
O=C(CCn1ccnn1)N1CCC=C(c2ccc3cc(C(=O)N4CCCC4)[nH]c3c2)C1 [Example I-124]	> 100
O=C(CCn1ccnn1)N1CCC=C(c2ccc3cc(C(=O)N4CCC4)[nH]c3c2)C1 [Example I-125]	> 100
CC1CCCN(C(=O)c2cc3ccc(C4=CCCN(C(=O)CCn5ccnn5)C4)cc3[nH]2)C1 (centres unmarked) [Example I-126]	> 100
CC1CCCN(C(=O)c2cc3ccc(C4=CCCN(C(=O)CCn5ccnn5)C4)cc3[nH]2)C1 (centres unmarked) [Example I-127]	10 to 100
O=C(CCn1ccnn1)N1CCC=C(c2ccc3oc(C(=O)N4CCCCC4)cc3c2)C1 [Example I-128]	10 to 100
CN(C)C(=O)c1cc2ccc(C3=CCCN(C(=O)c4ccc5c(c4)OCC(=O)N5)C3)cc2[nH]1 [Example I-132]	> 100
Cc1cc(CC(=O)N2CCC=C(c3ccc4cc(C(=O)N(C)C)[nH]c4c3)C2)on1 [Example I-133]	> 100
CN(C)C(=O)c1cc2ccc(C3=CCCN(C(=O)CCN4CCOC4=O)C3)cc2[nH]1 [Example I-134]	> 100
CN(C)C(=O)c1cc2ccc(C3=CCCN(C(=O)CC(C)(C)NCc4ccccc4)C3)cc2[nH]1 [Example I-135]	> 100
COc1ccc(Cn2cc(CC(=O)N3CCC=C(c4ccc5cc(C(=O)N(C)C)[nH]c5c4)C3)cn2)cc1 [Example I-136]	> 100
CN(C)C(=O)c1cc2ccc(C3=CCCN(C(=O)c4cccnc4-c4ccc(F)c(F)c4)C3)cc2[nH]1 [Example I-137]	> 100
